This is an account of results in patent US10457687B2, “Aminoacid derivatives, a process for their preparation and pharmaceutical compositions containing them” (LES LABORATOIRES SERVIER, priority 2015, dated 2019).

The IC50 is the concentration needed to halve the response being measured. For orientation: inhibition means the change of the read-out against control, counted positive when it falls.

Mcl-1 protein, sequence (Q07820 whole entry): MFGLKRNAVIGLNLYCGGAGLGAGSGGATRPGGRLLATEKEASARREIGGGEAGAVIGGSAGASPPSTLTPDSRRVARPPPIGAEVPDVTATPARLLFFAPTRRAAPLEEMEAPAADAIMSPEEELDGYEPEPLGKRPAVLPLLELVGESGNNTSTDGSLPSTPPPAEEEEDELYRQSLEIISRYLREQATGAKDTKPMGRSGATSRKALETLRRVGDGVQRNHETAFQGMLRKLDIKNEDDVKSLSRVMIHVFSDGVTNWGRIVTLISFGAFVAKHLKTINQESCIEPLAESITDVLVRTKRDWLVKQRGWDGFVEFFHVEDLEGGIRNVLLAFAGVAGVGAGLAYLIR

In the first test the target is Mcl-1 protein (Homo sapiens, UniProt Q07820). As to the kind of experiment: Inhibition of Mcl-1 by the fluorescence polarisation technique (Method 1 or Method 2). Format: binding. The following applies: fluorescence polarisation, Fluorescein labelled ligand; Method 1 (not underlined) or Method 2 (underlined); read-out: IC50 (μM) Mcl-1 FP. How it is done:
The relative binding potency of each compound was determined via Fluorescence Polarisation (FP).
An 11 point serial dilution of each compound was prepared in DMSO and 2 μl transferred into flat bottomed, low binding, 384-well plate (final DMSO concentration 5%). 38 μl of buffer (10 mM 4-(2-hydroxyethyl)-1-piperazineethanesulfonic acid [HEPES], 150 mM NaCl, 0.05% Tween 20, pH 7.4), containing the Fluorescein labelled ligand (final concentration 1 nM) and Mcl-1 protein (final concentration 5 nM) was then added.
An 11 point serial dilution of each compound was prepared in DMSO and 2 μl transferred into flat bottomed, low binding, 384-well plate (final DMSO concentration 5%). 38 μl of buffer (20 mM Na2HPO4, 1 mM EDTA, 50 mM NaCl, pH 7.4), containing the Fluorescein labelled ligand (final concentration 10 nM) and Mcl-1 protein (final concentration 10 nM) was then added.
On the technique in general: In fluorescence polarisation assays a small probe gives low polarisation when free and higher when bound to something large.
For the molecule `CCc1sc2ncnc(NC(Cc3c[nH]c4ccccc34)C(=O)O)c2c1-c1cccc2ccccc12` [Example 185, N-[6-ethyl-(5Sa)-5-(naphthalen-1-yl)thieno[2,3-d]pyrimidin-4-yl]-D-tryptophan], the IC50 stood at 2.53 µM. In the case of `CCc1sc2ncnc(N[C@H](Cc3ccccc3OC)C(=O)O)c2c1-c1cccc2ccccc12` [Example 182, N-[6-ethyl-5-(naphthalen-1-yl)thieno[2,3-d]pyrimidin-4-yl]-2-methoxy-D-phenylalanine], the IC50 turned out to be 0.407 µM. As for `CCc1sc2ncnc(N[C@H](Cc3ccccc3)C(=O)O)c2c1-c1cccc2[nH]ncc12` [Example 98, N-[6-ethyl-5-(1H-indazol-4-yl)thieno[2,3-d]pyrimidin-4-yl]-D-phenylalanine], the IC50 amounted to 2.87 µM. On to `CC(C)c1sc2ncnc(N[C@H](Cc3ccccc3)C(=O)O)c2c1-c1cccc2ccccc12` (single isomer, unassigned) [Example 201, N-[5-(naphthalen-1-yl)-6-(propan-2-yl)thieno[2,3-d]pyrimidin-4-yl]-D-phenylalanine], for which the IC50 was 0.136 µM. Regarding `C=C(C)c1sc2ncnc(NC(Cc3ccccc3)C(=O)O)c2c1-c1cccc2ccccc12` [Example 106, N-[(5Sa)-5-(naphthalen-1-yl)-6-(prop-1-en-2-yl)thieno[2,3-d]pyrimidin-4-yl]-D-phenylalanine], the IC50 came out at 0.065 µM.

Take `CCc1sc2ncnc(NC(Cc3ccccc3)C(=O)O)c2c1-c1cccc(Br)c1C` [Example 96, N-[(5Ra)-5-(3-bromo-2-methylphenyl)-6-ethylthieno[2,3-d]pyrimidin-4-yl]-D-phenylalanine]: the IC50 came out at 1.63 µM.

For the molecule `CCc1sc2ncnc(NC(Cc3ccccn3)C(=O)O)c2c1-c1cccc(Cl)c1C` [Example 152, N-[(5Sa)-5-(3-chloro-2-methylphenyl)-6-ethylthieno[2,3-d]pyrimidin-4-yl]-3-pyridin-2-yl-D-alanine], the IC50 worked out at 0.047 µM.

As for `CCc1sc2ncnc(NC(Cc3ccc(O)cc3)C(=O)O)c2c1-c1cccc2ccccc12` [Example 172, N-[6-ethyl-(5Ra)-5-(naphthalen-1-yl)thieno[2,3-d]pyrimidin-4-yl]-D-tyrosine], the IC50 was determined as 28.8 µM. `CCc1sc2ncnc(N[C@H](Cc3cccnc3)C(=O)O)c2c1-c1cccc2ccccc12` [Example 192, N-[6-ethyl-5-(naphthalen-1-yl)thieno[2,3-d]pyrimidin-4-yl]-3-pyridin-3-yl-D-alanine]: the half-maximal inhibitory concentration (IC50) came to 2.08 µM. On to `CCc1sc2ncnc(NC(Cc3ccccc3)C(=O)O)c2c1-c1cccc2c1c(Cl)cn2CCN(C)C` [Example 230, N-((5Sa)-5-{3-chloro-1l-[2-(dimethylamino)ethyl]-1H-indol-4-yl}-6-ethyl-thieno[2,3-d]pyrimidin-4-yl)-D-phenylalanine], for which the half-maximal inhibitory concentration (IC50) came out at 3.24 µM. Still for that read-out and setting: with `CCc1sc2ncnc(NC(Cc3ccccc3)C(=O)O)c2c1-c1cccc2c1c(Cl)cn2CCN1CCCCC1` [Example 235, N-((5Sa)-5-{3-chloro-1-[2-(piperidin-1-yl)ethyl]-1H-indol-4-yl}-6-ethyl-thieno[2,3-d]pyrimidin-4-yl)-D-phenylalanine] the figure was 1.39 µM. With `CCc1sc2ncnc(NC(CCc3ccccc3)C(=O)O)c2c1-c1cccc2ccccc12` [Example 171, (2R)-2-{[6-ethyl-(5Ra)-5-(naphthalen-1-yl)thieno[2,3-d]pyrimidin-4-yl]amino}-4-phenylbutanoic acid], the IC50 turned out to be 2.77 µM. On to `CCc1sc2ncnc(NC(Cc3cccnc3)C(=O)O)c2c1-c1cccc2ccccc12` [Example 162, N-[6-ethyl-(5Sa)-5-(naphthalen-1-yl)thieno[2,3-d]pyrimidin-4-yl]-3-pyridin-3-yl-D-alanine], for which the IC50 turned out to be 0.597 µM. Regarding `CCc1sc2ncnc(N[C@H](CCc3ccccc3)C(=O)O)c2c1-c1cccc2ccccc12` [Example 169, (2R)-2-{[6-ethyl-5-(naphthalen-1-yl)thieno[2,3-d]pyrimidin-4-yl]amino}-4-phenylbutanoic acid], the IC50 was 2.1 µM.

With `CCc1sc2ncnc(N[C@H](Cc3ccccn3)C(=O)O)c2c1-c1cccc2ccccc12` [Example 191, N-[6-ethyl-5-(naphthalen-1-yl)thieno[2,3-d]pyrimidin-4-yl]-3-pyridin-2-yl-D-alanine], the IC50 amounted to 0.171 µM.

Consider `CCc1sc2ncnc(NC(Cc3ccccc3)C(=O)O)c2c1-c1cccc2ccccc12` [Example 100, N-[6-ethyl-(5Ra)-5-(naphthalen-1-yl)thieno[2,3-d]pyrimidin-4-yl]-D-phenylalanine], for which the IC50 stood at 4.75 µM. As for `CCc1sc2ncnc(NC(Cc3ccccc3)C(=O)O)c2c1-c1cccc(OC)c1C` [Example 75, N-[6-ethyl-(5Sa)-5-(3-methoxy-2-methylphenyl)thieno[2,3-d]pyrimidin-4-yl]-D-phenylalanine], the IC50 was 0.28 µM. On the same count and under the same terms, as for `O=C(O)[C@@H](Cc1ccccc1)Nc1ncnc2sc(C(F)F)c(-c3cccc4ccccc34)c12` (single isomer, unassigned) [Example 207, N-[6-(difluoromethyl)-5-(naphthalen-1-yl)thieno[2,3-d]pyrimidin-4-yl]-D-phenylalanine], the figure is 0.136 µM; as for `CCc1sc2ncnc(NC(Cc3ccccn3)C(=O)O)c2c1-c1cccc2c1c(Cl)cn2CCN1CCN(C)CC1` [Example 249, N-((5Ra)-5-{3-chloro-1-[2-(4-methylpiperazin-1-yl)ethyl]-1H-indol-4-yl}-6-ethyl-thieno[2,3-d]pyrimidin-4-yl)-3-pyridin-2-yl-D-alanine], 36.8 µM; as for `CCc1sc2ncnc(NC(CC3CCCCC3)C(=O)O)c2c1-c1cccc2ccccc12` [Example 166, 3-cyclohexyl-N-[6-ethyl-(5Sa)-5-(naphthalen-1-yl)thieno[2,3-d]pyrimidin-4-yl]-D-alanine], 0.064 µM. For `CC(=O)c1sc2ncnc(NC(Cc3ccccc3)C(=O)O)c2c1-c1cccc2ccccc12` [Example 200, N-[6-acetyl-(5Ra)-5-(naphthalen-1-yl)thieno[2,3-d]pyrimidin-4-yl]-D-phenylalanine], the IC50 stood at 5.44 µM. Same read-out and setting: as for `C=Cc1sc2ncnc(NC(Cc3ccccc3)C(=O)O)c2c1-c1cccc2ccccc12` [Example 103, N-[6-ethenyl-(5Ra)-5-(naphthalen-1-yl)thieno[2,3-d]pyrimidin-4-yl]-D-phenylalanine], the figure is 0.715 µM; as for `CCc1sc2ncnc(N[C@H](Cc3ccccc3)C(=O)O)c2c1-c1cccc2cc[nH]c12` (single isomer, unassigned) [Example 71, N-[6-ethyl-5-(1H-indol-7-yl)thieno[2,3-d]pyrimidin-4-yl]-D-phenylalanine], 39 µM. In the case of `O=C(O)C(Cc1ccccc1)Nc1ncnc2sc(CO)c(-c3cccc4ccccc34)c12` [Example 198, N-[6-(hydroxymethyl)-(5Sa)-5-(naphthalen-1-yl)thieno[2,3-d]pyrimidin-4-yl]-D-phenylalanine], the 50% inhibitory concentration (IC50) came to 9.86 µM. Still for that read-out and setting: as for `CCc1sc2ncnc(NC(Cc3ccccc3)C(=O)O)c2c1-c1ccnc(Cl)c1C` [Example 78, N-[(5Sa)-5-(2-chloro-3-methylpyridin-4-yl)-6-ethylthieno[2,3-d]pyrimidin-4-yl]-D-phenylalanine], the figure is 0.135 µM; as for `CCc1sc2ncnc(NC(CCc3ccccc3)C(=O)O)c2c1-c1cccc2ccccc12` [Example 170, (2R)-2-{[6-ethyl-(5Sa)-5-(naphthalen-1-yl)thieno[2,3-d]pyrimidin-4-yl]amino}-4-phenylbutanoic acid], 0.955 µM. Regarding `CCc1sc2ncnc(NC(Cc3ccccc3OCCCN(C)C)C(=O)O)c2c1-c1cccc(Cl)c1C` [Example 158, N-[(5Sa)-5-(3-chloro-2-methylphenyl)-6-ethylthieno[2,3-d]pyrimidin-4-yl]-2-[3-(dimethylamino)propoxy]-D-phenylalanine], the IC50 was 0.104 µM.

Still in this test, the particulars now being: partial inhibitors; @ 7.4 μM test compound; read-out: percentage fluorescence polarisation inhibition, Mcl-1 FP.
For the molecule `CCc1sc2ncnc(N[C@H](Cc3ccccc3)C(=O)O)c2c1-c1cccc2c1cnn2C` [Example 87, N-[6-ethyl-5-(1-methyl-1H-indazol-4-yl)thieno[2,3-d]pyrimidin-4-yl]-D-phenylalanine], the inhibition at 7.4 µM was 62.6%.

The test is the same for the next values; noted with them: partial inhibitors; @ 10 μM test compound.
`Cc1c(Cl)cccc1-c1c(C2CC2)sc2ncnc(NC(Cc3ccccc3)C(=O)O)c12` [Example 216, N-[(5Ra)-5-(3-chloro-2-methylphenyl)-6-cyclopropyl-thieno[2,3-d]pyrimidin-4-yl]-D-phenylalanine]: the “percentage fluorescence polarisation inhibition, Mcl-1 FP” value was 58.95% @ 10 μM. For the molecule `CCc1sc2ncnc(N[C@@H](Cc3ccccc3)C(=O)O)c2c1-c1ccc(OCCN(C)C)c(Cl)c1C` [Example 58, N-((5Ra)-5-{3-chloro-4-[2-(dimethylamino)ethoxy]-2-methylphenyl}-6-ethylthieno[2,3-d]pyrimidin-4-yl)-L-phenylalanine], the “percentage fluorescence polarisation inhibition, Mcl-1 FP” value is reported as 52.8% @ 10 μM.

Still in this test, the particulars now being: partial inhibitors; @ 50 μM test compound.
With `CCc1sc2ncnc(N[C@H](Cc3ccccc3OCCN(C)C)C(=O)O)c2c1-c1cccc(Cl)c1C` [Example 155, N-[(5Ra)-5-(3-chloro-2-methylphenyl)-6-ethylthieno[2,3-d]pyrimidin-4-yl]-2-[2-(dimethylamino)ethoxy]-D-phenylalanine], the “percentage fluorescence polarisation inhibition, Mcl-1 FP” value was found to be 63.15% @ 50 μM.

Staying with this test, now noted: partial inhibitors; @ 66.7 μM test compound.
Consider `CCc1sc2ncnc(NC(Cc3ccccn3)C(=O)O)c2c1-c1cccc(Cl)c1C` [Example 151, N-[(5Ra)-5-(3-chloro-2-methylphenyl)-6-ethylthieno[2,3-d]pyrimidin-4-yl]-3-pyridin-2-yl-D-alanine], for which the “percentage fluorescence polarisation inhibition, Mcl-1 FP” value was found to be 71.3% @ 66.7 μM.
